Holding throughout (assay): relative viability (nuclei count vs DMSO), 5 days (fraction); higher = more cells survive
Compound in the assay “BMX-IN-1 + Lapatinib”: C=CC(=O)Nc1cc(-n2c(=O)ccc3cnc4ccc(-c5ccc(NS(C)(=O)=O)cc5)cc4c32)ccc1C [BMX-IN-1] + CS(=O)(=O)CCNCc1ccc(-c2ccc3ncnc(Nc4ccc(OCc5cccc(F)c5)c(Cl)c4)c3c2)o1 [Lapatinib] (partner 2 µM)
In a few lines: (§1)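 The day after seeding in 1536-well plates, lung cancer cell lines were treated by pin tool with a single drug, or with a fixed anchor-drug dose together with five library-drug doses (not always all listed) in √10 steps. After 5 days, a combined fix-and-stain solution (final 0.05% Triton X-100, 1% formaldehyde, 1 ug/ml Hoechst) was added. Nuclei counted on 4× images gave relative viability as treated counts over vehicle counts, reported as the median of duplicate plates.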

Compound in the assay “BMX-IN-1 + Alpelisib”: C=CC(=O)Nc1cc(-n2c(=O)ccc3cnc4ccc(-c5ccc(NS(C)(=O)=O)cc5)cc4c32)ccc1C [BMX-IN-1] + Cc1nc(NC(=O)N2CCC[C@H]2C(N)=O)sc1-c1ccnc(C(C)(C)C(F)(F)F)c1 [Alpelisib] (partner 2 µM)
In a few lines: as §1

Compound in the assay “PAC-1 + Phenformin”: C=CCc1cccc(/C=N/NC(=O)CN2CCN(Cc3ccccc3)CC2)c1O [PAC-1] + N=C(N)NC(=N)NCCc1ccccc1 [Phenformin] (partner 250 µM)
The gist of the method: as §1

Compound in the assay “PAC-1 + Pemetrexed”: C=CCc1cccc(/C=N/NC(=O)CN2CCN(Cc3ccccc3)CC2)c1O [PAC-1] + Nc1nc2[nH]cc(CCc3ccc(C(=O)N[C@@H](CCC(=O)O)C(=O)O)cc3)c2c(=O)[nH]1 [Pemetrexed] (partner 0.2 µM)
In a few lines:
as §1

For the cell line SK-MES-1, the relative viability with BMX-IN-1 + Lapatinib (first compound 0.02 µM) was 0.473; with BMX-IN-1 + Lapatinib (first compound 0.2 µM), 0.466; with BMX-IN-1 + Lapatinib (first compound 0.6325 µM), 0.489; in the assay with BMX-IN-1 + Lapatinib (first compound 2 µM), 0.439; with BMX-IN-1 + Alpelisib (first compound 0.02 µM), 1.09; with BMX-IN-1 + Alpelisib (first compound 0.2 µM), 0.947. Besides, the relative viability in the assay with BMX-IN-1 + Alpelisib (first compound 0.6325 µM) is 0.911; with BMX-IN-1 + Alpelisib (first compound 2 µM), 0.88; with PAC-1 + Phenformin (first compound 0.02 µM), 0.638; with PAC-1 + Phenformin (first compound 0.06325 µM), 0.661; with PAC-1 + Phenformin (first compound 0.2 µM), 0.381; with PAC-1 + Phenformin (first compound 2 µM), 0.645. Moreover, the relative viability turned out to be 0.939 with PAC-1 + Pemetrexed (first compound 0.02 µM), 1.02 in the assay with PAC-1 + Pemetrexed (first compound 0.06325 µM), 0.889 in the assay with PAC-1 + Pemetrexed (first compound 0.2 µM) and 0.971 with PAC-1 + Pemetrexed (first compound 2 µM).
